Measurements from ChEMBL document CHEMBL1150224, “Antioxidant benzoylated flavan-3-ol glycoside from Celastrus orbiculatus” (J Nat Prod, 2001).
Values after ≈ are worked out from the molar mass of the structure shown.

System: Radical scavenging activity
Assay: Antioxidant activity assessed as DPPH radical scavenging activity
Assay type: functional

Molecule | IC50 [µg/mL]
Oc1ccc([C@H]2Oc3cc(O)cc(O)c3C[C@H]2O)cc1 [EPIAFZELECHIN (2R,3R)(-)] | 7.5 (≈ 27.3 µM)
O=C(O[C@@H]1Cc2c(O[C@@H]3O[C@H](CO)[C@@H](O)[C@H](O)[C@H]3O)cc(O)cc2O[C@@H]1c1ccc(O)c(O)c1)c1ccccc1 | 25 (≈ 44.9 µM)
O=C(O[C@@H]1Cc2c(O)cc(O)cc2O[C@@H]1c1ccc(O)c(O)c1)c1ccccc1 | 17 (≈ 43.1 µM)
COc1ccc(O)c(C(C)(C)C)c1.COc1ccc(O)cc1C(C)(C)C [BUTYLATED HYDROXYANISOLE] | 4.5
Oc1cc(O)c2c(c1)O[C@H](c1ccc(O)c(O)c1)[C@H](O)C2 [(-)-EPICATECHIN] | 8.5 (≈ 29.3 µM)
O=C(O[C@@H]1Cc2c(O)cc(O)cc2O[C@@H]1c1cc(O)c(O)c(O)c1)c1cc(O)c(O)c(O)c1 [EPIGALOCATECHIN GALLATE] | 5.6 (≈ 12.2 µM)
VITAMIN E | 6.2
